± gives the expanded uncertainty stated by the source.
Assay: xn = mol fraction of the nth substance listed
Conditions: 101 kPa, Liquid; for speed of sound: Pulse-echo method; for mass density: Vibrating tube method

ClCCCCCCl [1,5-dichloropentane] + CCCCCCCCCCCC
Conditions	mass density [kg/m3]	speed of sound [m/s]
278.15 K, x1 = 0.05237	769.83 ± 0.35	1353.9 ± 1.1
278.15 K, x1 = 0.1014	780 ± 0.35	1351.3 ± 1.1
278.15 K, x1 = 0.2008	802.34 ± 0.36	1347.1 ± 1.1
278.15 K, x1 = 0.3039	827.99 ± 0.37	1344.1 ± 1.1
278.15 K, x1 = 0.3945	852.98 ± 0.38	1342.4 ± 1.1
278.15 K, x1 = 0.4983	884.91 ± 0.4	1342.1 ± 1.1
278.15 K, x1 = 0.6014	920.97 ± 0.42	1343.6 ± 1.1
278.15 K, x1 = 0.6987	959.17 ± 0.44	1347.1 ± 1.1
278.15 K, x1 = 0.7975	1003.24 ± 0.46	1353.4 ± 1.1
278.15 K, x1 = 0.9021	1056.96 ± 0.49	1363.5 ± 1.1
278.15 K, x1 = 0.9497	1084.25 ± 0.51	1369.5 ± 1.1
278.15 K, x1 = 1	1115.28 ± 0.52	1376.6 ± 1.1
283.15 K, x1 = 0.05237	766.19 ± 0.35	1334.4 ± 1.1
283.15 K, x1 = 0.1014	776.32 ± 0.35	1331.9 ± 1.1
283.15 K, x1 = 0.2008	798.55 ± 0.36	1327.8 ± 1.1
283.15 K, x1 = 0.3039	824.08 ± 0.37	1324.9 ± 1.1
283.15 K, x1 = 0.3945	848.97 ± 0.38	1323.6 ± 1.1
283.15 K, x1 = 0.4983	880.76 ± 0.4	1323.4 ± 1.1
283.15 K, x1 = 0.6014	916.68 ± 0.42	1325.1 ± 1.1
283.15 K, x1 = 0.6987	954.72 ± 0.44	1328.9 ± 1.1
283.15 K, x1 = 0.7975	998.63 ± 0.46	1335.3 ± 1.1
283.15 K, x1 = 0.9021	1052.15 ± 0.49	1345.6 ± 1.1
283.15 K, x1 = 0.9497	1079.35 ± 0.5	1351.7 ± 1.1
283.15 K, x1 = 1	1110.26 ± 0.52	1358.9 ± 1.1
288.15 K, x1 = 0.05237	762.54 ± 0.35	1314.6 ± 1
288.15 K, x1 = 0.1014	772.61 ± 0.35	1312.2 ± 1.1
288.15 K, x1 = 0.2008	794.74 ± 0.36	1308.2 ± 1.1
288.15 K, x1 = 0.3039	820.16 ± 0.37	1305.7 ± 1.1
288.15 K, x1 = 0.3945	844.93 ± 0.38	1304.4 ± 1.1
288.15 K, x1 = 0.4983	876.58 ± 0.4	1304.5 ± 1.1
288.15 K, x1 = 0.6014	912.36 ± 0.41	1306.4 ± 1.1
288.15 K, x1 = 0.6987	950.25 ± 0.43	1310.3 ± 1.1
288.15 K, x1 = 0.7975	993.99 ± 0.46	1317 ± 1.1
288.15 K, x1 = 0.9021	1047.3 ± 0.49	1327.5 ± 1.1
288.15 K, x1 = 0.9497	1074.4 ± 0.5	1333.7 ± 1.1
288.15 K, x1 = 1	1105.2 ± 0.52	1341 ± 1.1
293.15 K, x1 = 0.05237	758.89 ± 0.34	1295.1 ± 1
293.15 K, x1 = 0.1014	768.91 ± 0.35	1292.8 ± 1
293.15 K, x1 = 0.2008	790.94 ± 0.36	1289 ± 1.1
293.15 K, x1 = 0.3039	816.25 ± 0.37	1286.6 ± 1.1
293.15 K, x1 = 0.3945	840.9 ± 0.38	1285.5 ± 1.1
293.15 K, x1 = 0.4983	872.42 ± 0.4	1285.7 ± 1.1
293.15 K, x1 = 0.6014	908.04 ± 0.41	1287.9 ± 1.1
293.15 K, x1 = 0.6987	945.78 ± 0.43	1292 ± 1.1
293.15 K, x1 = 0.7975	989.35 ± 0.45	1298.8 ± 1.1
293.15 K, x1 = 0.9021	1042.45 ± 0.48	1309.5 ± 1.1
293.15 K, x1 = 0.9497	1069.46 ± 0.5	1315.8 ± 1.1
293.15 K, x1 = 1	1100.16 ± 0.51	1323.2 ± 1.1
298.15 K, x1 = 0.05237	755.23 ± 0.34	1275.6 ± 1
298.15 K, x1 = 0.1014	765.22 ± 0.35	1273.5 ± 1
298.15 K, x1 = 0.2008	787.14 ± 0.36	1269.8 ± 1.1
298.15 K, x1 = 0.3039	812.33 ± 0.37	1267.5 ± 1.1
298.15 K, x1 = 0.3945	836.86 ± 0.38	1266.6 ± 1.1
298.15 K, x1 = 0.4983	868.24 ± 0.39	1267 ± 1.1
298.15 K, x1 = 0.6014	903.71 ± 0.41	1269.3 ± 1.1
298.15 K, x1 = 0.6987	941.31 ± 0.43	1273.7 ± 1.1
298.15 K, x1 = 0.7975	984.72 ± 0.45	1280.7 ± 1.1
298.15 K, x1 = 0.9021	1037.61 ± 0.48	1291.6 ± 1.1
298.15 K, x1 = 0.9497	1064.51 ± 0.5	1298 ± 1.1
298.15 K, x1 = 1	1095.11 ± 0.51	1305.4 ± 1.1
303.15 K, x1 = 0.05237	751.58 ± 0.34	1256.4 ± 1
303.15 K, x1 = 0.1014	761.51 ± 0.35	1254.2 ± 1
303.15 K, x1 = 0.2008	783.32 ± 0.36	1250.7 ± 1
303.15 K, x1 = 0.3039	808.4 ± 0.37	1248.6 ± 1.1
303.15 K, x1 = 0.3945	832.82 ± 0.38	1247.8 ± 1.1
303.15 K, x1 = 0.4983	864.07 ± 0.39	1248.4 ± 1.1
303.15 K, x1 = 0.6014	899.38 ± 0.41	1250.9 ± 1.1
303.15 K, x1 = 0.6987	936.82 ± 0.43	1255.4 ± 1.1
303.15 K, x1 = 0.7975	980.06 ± 0.45	1262.6 ± 1.1
303.15 K, x1 = 0.9021	1032.76 ± 0.48	1273.8 ± 1.1
303.15 K, x1 = 0.9497	1059.56 ± 0.49	1280.3 ± 1.1
303.15 K, x1 = 1	1090.07 ± 0.51	1287.9 ± 1.1
308.15 K, x1 = 0.05237	747.91 ± 0.34	1237.3 ± 1
308.15 K, x1 = 0.1014	757.8 ± 0.35	1235.2 ± 1
308.15 K, x1 = 0.2008	779.49 ± 0.35	1231.8 ± 1
308.15 K, x1 = 0.3039	804.47 ± 0.37	1229.8 ± 1
308.15 K, x1 = 0.3945	828.76 ± 0.38	1229.2 ± 1.1
308.15 K, x1 = 0.4983	859.88 ± 0.39	1230 ± 1.1
308.15 K, x1 = 0.6014	895.05 ± 0.41	1232.7 ± 1.1
308.15 K, x1 = 0.6987	932.33 ± 0.43	1237.4 ± 1.1
308.15 K, x1 = 0.7975	975.41 ± 0.45	1244.8 ± 1.1
308.15 K, x1 = 0.9021	1027.91 ± 0.48	1256.1 ± 1.1
308.15 K, x1 = 0.9497	1054.61 ± 0.49	1262.7 ± 1.1
308.15 K, x1 = 1	1085.02 ± 0.51	1270.3 ± 1.1
313.15 K, x1 = 0.05237	744.24 ± 0.34	1218.4 ± 1
313.15 K, x1 = 0.1014	754.07 ± 0.34	1216.4 ± 1
313.15 K, x1 = 0.2008	775.66 ± 0.35	1213.2 ± 1
313.15 K, x1 = 0.3039	800.53 ± 0.36	1211.4 ± 1
313.15 K, x1 = 0.3945	824.71 ± 0.38	1210.9 ± 1.1
313.15 K, x1 = 0.4983	855.7 ± 0.39	1211.8 ± 1.1
313.15 K, x1 = 0.6014	890.7 ± 0.41	1214.6 ± 1.1
313.15 K, x1 = 0.6987	927.83 ± 0.42	1219.6 ± 1.1
313.15 K, x1 = 0.7975	970.74 ± 0.45	1227 ± 1.1
313.15 K, x1 = 0.9021	1023.05 ± 0.47	1238.5 ± 1.1
313.15 K, x1 = 0.9497	1049.66 ± 0.49	1245.2 ± 1.1
313.15 K, x1 = 1	1079.97 ± 0.5	1253 ± 1.1
318.15 K, x1 = 0.05237	740.56 ± 0.34	1199.7 ± 1
318.15 K, x1 = 0.1014	750.34 ± 0.34	1197.7 ± 1
318.15 K, x1 = 0.2008	771.82 ± 0.35	1194.6 ± 1
318.15 K, x1 = 0.3039	796.59 ± 0.36	1192.9 ± 1
318.15 K, x1 = 0.3945	820.64 ± 0.37	1192.5 ± 1
318.15 K, x1 = 0.4983	851.51 ± 0.39	1193.6 ± 1.1
318.15 K, x1 = 0.6014	886.36 ± 0.4	1196.7 ± 1.1
318.15 K, x1 = 0.6987	923.36 ± 0.42	1201.7 ± 1.1
318.15 K, x1 = 0.7975	966.1 ± 0.44	1209.5 ± 1.1
318.15 K, x1 = 0.9021	1018.21 ± 0.47	1221.1 ± 1.1
318.15 K, x1 = 0.9497	1044.74 ± 0.49	1227.9 ± 1.1
318.15 K, x1 = 1	1074.95 ± 0.5	1235.8 ± 1.1
323.15 K, x1 = 0.05237	736.88 ± 0.34	1181 ± 1
323.15 K, x1 = 0.1014	746.61 ± 0.34	1179.3 ± 1
323.15 K, x1 = 0.2008	767.98 ± 0.35	1176.2 ± 1
323.15 K, x1 = 0.3039	792.63 ± 0.36	1174.7 ± 1
323.15 K, x1 = 0.3945	816.57 ± 0.37	1174.4 ± 1
323.15 K, x1 = 0.4983	847.29 ± 0.39	1175.6 ± 1.1
323.15 K, x1 = 0.6014	882 ± 0.4	1178.8 ± 1.1
323.15 K, x1 = 0.6987	918.84 ± 0.42	1184.1 ± 1.1
323.15 K, x1 = 0.7975	961.42 ± 0.44	1191.9 ± 1.1
323.15 K, x1 = 0.9021	1013.35 ± 0.47	1203.8 ± 1.1
323.15 K, x1 = 0.9497	1039.77 ± 0.49	1210.6 ± 1.1
323.15 K, x1 = 1	1069.89 ± 0.5	1218.7 ± 1.1
328.15 K, x1 = 0.05237	733.17 ± 0.34	1162.7 ± 1
328.15 K, x1 = 0.1014	742.86 ± 0.34	1160.8 ± 1
328.15 K, x1 = 0.2008	764.14 ± 0.35	1157.9 ± 1
328.15 K, x1 = 0.3039	788.68 ± 0.36	1156.5 ± 1
328.15 K, x1 = 0.3945	812.52 ± 0.37	1156.4 ± 1
328.15 K, x1 = 0.4983	843.12 ± 0.39	1157.7 ± 1
328.15 K, x1 = 0.6014	877.69 ± 0.4	1161.2 ± 1.1
328.15 K, x1 = 0.6987	914.4 ± 0.42	1166.5 ± 1.1
328.15 K, x1 = 0.7975	956.8 ± 0.44	1174.5 ± 1.1
328.15 K, x1 = 0.9021	1008.57 ± 0.47	1186.6 ± 1.1
328.15 K, x1 = 0.9497	1034.9 ± 0.48	1193.5 ± 1.1
328.15 K, x1 = 1	1064.93 ± 0.5	1201.6 ± 1.1
